Here are results for ten molecules from ChEMBL document CHEMBL4265900, “Discovery of the bifunctional modulator of angiotensin II type 1 receptor (AT1R) and PPARγ derived from the AT1R antagonist, Fimasartan” (Bioorg Med Chem Lett, 2018).

As usually defined, the IC50 is the concentration that gives 50% inhibition. The inhibition is the relative decrease from the control value, in per cent.

The target of assay [1] is T1, Type-1 angiotensin II receptor (Homo sapiens, UniProt P30556).
T1 sequence (P30556 whole entry): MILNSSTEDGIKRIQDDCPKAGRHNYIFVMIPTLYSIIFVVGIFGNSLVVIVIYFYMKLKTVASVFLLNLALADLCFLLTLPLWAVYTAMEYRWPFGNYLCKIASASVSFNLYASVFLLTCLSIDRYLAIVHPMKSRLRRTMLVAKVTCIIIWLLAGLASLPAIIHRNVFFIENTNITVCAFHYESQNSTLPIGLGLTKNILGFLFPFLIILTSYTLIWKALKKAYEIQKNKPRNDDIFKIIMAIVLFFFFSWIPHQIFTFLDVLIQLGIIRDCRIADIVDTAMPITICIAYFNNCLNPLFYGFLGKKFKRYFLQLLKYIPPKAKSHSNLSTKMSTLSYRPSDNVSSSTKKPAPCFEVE
Put plainly: Antagonist activity at type-1 angiotensin 2 receptor (unknown origin) by calcium mobilizing assay. Format: functional.

Assay [2] concerns the target T2, Peroxisome proliferator-activated receptor gamma (Homo sapiens) (UniProt P37231).
T2 sequence (whole entry): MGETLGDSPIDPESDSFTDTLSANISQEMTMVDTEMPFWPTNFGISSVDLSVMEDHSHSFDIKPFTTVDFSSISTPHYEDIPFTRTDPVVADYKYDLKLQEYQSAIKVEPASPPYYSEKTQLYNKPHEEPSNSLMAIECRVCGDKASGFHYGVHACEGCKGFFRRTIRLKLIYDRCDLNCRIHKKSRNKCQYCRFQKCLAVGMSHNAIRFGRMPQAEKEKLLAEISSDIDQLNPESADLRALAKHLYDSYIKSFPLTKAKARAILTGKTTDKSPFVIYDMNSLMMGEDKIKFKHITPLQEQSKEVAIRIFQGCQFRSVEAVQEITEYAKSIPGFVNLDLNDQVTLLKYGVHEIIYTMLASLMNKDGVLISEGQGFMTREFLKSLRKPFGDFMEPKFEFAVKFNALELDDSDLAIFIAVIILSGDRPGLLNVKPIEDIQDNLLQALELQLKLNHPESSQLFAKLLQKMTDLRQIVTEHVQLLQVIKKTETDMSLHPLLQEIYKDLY
Kind of assay: Agonist activity at PPARgamma (unknown origin) at 1 uM relative to telmisartan.

For assay [3], the target named is T3, Type-1 angiotensin II receptor (Homo sapiens) (UniProt P30556).
T3 sequence (whole entry): T1 sequence (P30556 whole entry)
Put plainly: Antagonist activity at type-1 angiotensin 2 receptor (unknown origin) at 20 nM by calcium mobilizing assay relative to fimasartan. Format: functional.

Take `CCCc1nc(C)c(CC(=S)N(C)C)c(=O)n1Cc1ccc(-c2ccccc2-c2noc(=O)[nH]2)cc1`: the IC50 in assay [1] is 4.7 nM. The Activity in assay [2] is 100%.
On the same counts, the results for `CCCCc1nc(C)c(CC(=S)N2CCCCC2)c(=O)n1Cc1ccc(-c2ccccc2-c2noc(=O)[nH]2)cc1` are 38 nM and 116%.
In the same order, the values of `CCCCc1nc(C)c(CC(=S)N(CC)CC)c(=O)n1Cc1ccc(-c2ccccc2-c2noc(=O)[nH]2)cc1` are 2 nM and 61%.
In the same order, the values of `CCCCc1nc(C)c(CC(=S)N2Cc3ccccc3C2)c(=O)n1Cc1ccc(-c2ccccc2-c2noc(=O)[nH]2)cc1` are 32 nM and 100%.
Consider `CCCCc1nc(C)c(CC(=S)N(C)CC(C)C)c(=O)n1Cc1ccc(-c2ccccc2-c2noc(=O)[nH]2)cc1`, for which the IC50 in assay [1] amounted to 2.1 nM. This molecule also yielded an Activity in assay [2] of 122%.
Consider `CCCCc1nc(C)c(CC(=S)N2CCCC2)c(=O)n1Cc1ccc(-c2ccccc2-c2noc(=O)[nH]2)cc1`, for which the IC50 in assay [1] came out at 0.7 nM. In assay [2], the Activity came to 105%.
Take `CCCCc1nc(C2CC2)c(CC(=S)N2CCCC2)c(=O)n1Cc1ccc(-c2ccccc2-c2noc(=O)[nH]2)cc1`: in assay [3], the inhibition amounted to 63%. The Activity in assay [2] stood at 79%.
Consider `CCCCc1nc(C)c(CC(=S)N(C)C)c(=O)n1Cc1ccc(-c2ccccc2S(N)(=O)=O)cc1`, for which, in assay [3], the inhibition was determined as 11%.
On to `CCCCc1nc(C)c(CC(=S)N2CC[C@@H]3CCCC[C@H]32)c(=O)n1Cc1ccc(-c2ccccc2-c2noc(=O)[nH]2)cc1`, for which, in assay [1], the IC50 amounted to 70 nM. The Activity in assay [2] was determined as 121%.
As to `CCCCc1nc(C)c(CC(=S)N2CCCC2C)c(=O)n1Cc1ccc(-c2ccccc2-c2noc(=O)[nH]2)cc1` (centres undefined), in assay [1], the concentration for half-maximal inhibition (IC50) turned out to be 1.2 nM. This molecule returned an Activity in assay [2] of 107%.
